Assay results: patent publication US12479843B2, “Spiro ring-containing quinazoline compounds” (WIGEN BIOMEDICINE TECHNOLOGY (SHANGHAI) CO., LTD., priority 2019, dated 2025)

Key:
pERK level in H358 cells = experiment: pERK and ERK protein content assay in H358 cells (ELISA); assay type: cell-based; conditions: Homo sapiens, NCI-H358, compound 1 μM, 24 h, pERK/ERK ratio compared with DMSO group, read-out: Inhibition rate (%) of pERK level
Method in brief: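 H358 cells grown one day, then treated 24 h with compound at 1 μM. pERK and ERK in lysates measured by ELISA; pERK/ERK ratio expressed as percent inhibition versus DMSO.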

H358 cells = experiment: Antiproliferative activity against H358 cells (Cell Titer Glow, ultra-low attachment plate); assay type: cell-based; conditions: Homo sapiens, NCI-H358, 72 h, 96-well ultra-low attachment plate, three days after addition of compound, Cell Titer Glow
Protocol: 2500 H358 cells were seeded in a 96-well ultra-low attachment plate (corning, 7007). After one day of growth, a serially diluted compound (a maximum concentration of 5 μM, 5-fold dilution, a total of five doses) was added. Three days after the addition of the compound, Cell Titer Glow (Promega, G9681) was added to evaluate pellet growth, and the IC50 value was calculated.

SMILES | IC50 (H358 cells) [nM] | inhibition at 1 µM (pERK level in H358 cells) [%]
C=CC(=O)N1CC2(CCN(c3nc(N4CC[C@@H](N5C6CCC5CC6)C4)nc4c(OCC(F)(F)F)c(-c5c(C)ccc6[nH]ncc56)c(C5CC5)cc34)CC2)C1 [Compound 303] | < 300 | > 90
C=CC(=O)N1CC2(CCN(c3nc(N4CC(N5CC[C@@H](N(C)C)C5)C4)nc4c(OCC(F)(F)F)c(-c5c(C)ccc6[nH]ncc56)c(C5CC5)cc34)CC2)C1 [Compound 256] | < 300 | > 90
C=CC(=O)N1CC2(CCN(c3nc(N4CC(N(CC)CC)C4)nc4c(OCC(F)(F)F)c(-c5c(C)ccc6[nH]ncc56)c(C5CC5)cc34)CC2)C1 [Compound 166] | < 300 | > 90
C=CC(=O)N1CC2(CCN(c3nc(OC4CCN(CCOC)CC4)nc4c(OCC(F)(F)F)c(-c5c(C)ccc6cc[nH]c(=O)c56)c(C5CC5)cc34)CC2)C1 [Compound 41] | < 300 | > 90
C=CC(=O)N1CC2(CCN(c3nc(N4CC(N5CC[C@@H](C)C5)C4)nc4c(OCC(F)(F)F)c(-c5c(C)c(F)cc6[nH]ncc56)c(C5CC5)cc34)CC2)C1 [Compound 328] | < 300 | > 90
C=CC(=O)N1CC2(CCN(c3nc(N4CC(N5CCCCC5)C4)nc4c(OCC(F)(F)F)c(-c5c(C)ccc6[nH]ncc56)c(C5CC5)cc34)CC2)C1 [Compound 177] | < 300 | > 90
C=CC(=O)N1CC2(CCN(c3nc(N4CC[C@H](N5CCC(C)C5)C4)nc4c(OCC(F)(F)F)c(-c5c(C)ccc6[nH]ncc56)c(C5CC5)cc34)CC2)C1 (stereo partly drawn) [Compound 298] | < 300 | > 90
C=C(F)C(=O)N1CC2(CCN(c3nc(OC4CC5(CCN(C(C)CC)CC5)C4)nc4c(OCC(F)(F)F)c(-c5c(C)ccc6[nH]ncc56)c(C5CC5)cc34)CC2)C1 (stereo not drawn) [Compound 134] | < 300 | > 90
C=CC(=O)N1CC2(CCN(c3nc(N4CC[C@H](N(C)C)C4)nc4c(OCC(F)(F)F)c(-c5c(C)ccc6[nH]ncc56)c(C5CC5)cc34)CC2)C1 [Compound 185] | < 300 | > 90
C=CC(=O)N1CC2(CCN(c3nc(N4CC(N5CC[C@H](C)C5)C4)nc4c(OCC(F)(F)F)c(-c5c(C)c(F)cc6[nH]ncc56)c(C5CC5)cc34)CC2)C1 [Compound 327] | < 300 | > 90
C=CC(=O)N1CC2(CCN(c3nc(N(C)CCN(C)C)nc4c(OCC(F)(F)F)c(-c5c(C)ccc6[nH]ncc56)c(C5CC5)cc34)CC2)C1 [Compound 225] | < 300 | > 90
C=C(F)C(=O)N1CC2(CCN(c3nc(OC4CCN(CCOC)CC4)nc4c(OCC(F)(F)F)c(-c5ccccc5F)c(C5CC5)cc34)CC2)C1 [Compound 52] | < 300 | > 90
C=CC(=O)N1CC2(CCN(c3nc(OC4CCN(CCOC)CC4)nc4c(N(C)CC(F)(F)F)c(-c5c(C)ccc6[nH]ncc56)c(C5CC5)cc34)CC2)C1 [Compound 7] | 300 to 1000 | 50 to 90
C=CC(=O)N1CC2(CCN(c3nc(N4CC[C@@H](N5CC[C@@H](F)C5)C4)nc4c(OCC(F)(F)F)c(-c5c(C)ccc6[nH]ncc56)c(C5CC5)cc34)CC2)C1 [Compound 194] | < 300 | > 90
C=CC(=O)N1CC2(CCN(c3nc(N4CC(N5C[C@@H](O)C[C@H]5C)C4)nc4c(OCC(F)(F)F)c(-c5c(C)ccc6[nH]ncc56)c(C5CC5)cc34)CC2)C1 [Compound 259] | < 300 | > 90
C=CC(=O)N1CC2(CCN(c3nc(OC4CN(C)C4)nc4c(OCC(F)(F)F)c(-c5c(C)ccc6[nH]ncc56)c(C5CC5)cc34)CC2)C1 [Compound 109] | < 300 | > 90
C=CC(=O)N1CC2(CCN(c3nc(N4CC5(C4)[C@@H](OC)CCN5C)nc4c(OCC(F)(F)F)c(-c5c(C)ccc6[nH]ncc56)c(C5CC5)cc34)CC2)C1 [Compound 275] | < 300 | > 90
C=CC(=O)N1CC2(CCN(c3nc(N4CCN(C5COC5)CC4)nc4c(OCC(F)(F)F)c(-c5c(C)ccc6[nH]ncc56)c(C5CC5)cc34)CC2)C1 [Compound 152] | < 300 | > 90
C=CC(=O)N1CC2(CCN(c3nc(N4CC[C@H](N5CC[C@@H](C)C5)C4)nc4c(OCC(F)(F)F)c(-c5c(C)ccc6[nH]ncc56)c(C5CC5)cc34)CC2)C1 [Compound 300] | < 300 | > 90
C=CC(=O)N1CC2(CCN(c3nc(N4CC(N5CC(C)C5)C4)nc4c(OCC(F)(F)F)c(-c5c(C)ccc6[nH]ncc56)c(C5CC5)cc34)CC2)C1 [Compound 237] | < 300 | > 90
C=CC(=O)N1CC2(CCN(c3nc(OC4CC5CC4CN5CCOC)nc4c(OCC(F)(F)F)c(-c5c(C)ccc6[nH]ncc56)c(C5CC5)cc34)CC2)C1 (stereo not drawn) [Compound 121] | < 300 | 50 to 90
C=CC(=O)N1CC2(CCN(c3nc(N4CC(N5C6CCC5CC6)C4)nc4c(OCC(F)(F)F)c(-c5c(C)ccc6[nH]ncc56)c(C=C)cc34)CC2)C1 [Compound 341] | < 300 | > 90
C=CC(=O)N1CC2(CCN(c3nc(N4CC(N5CC[C@@H](C)C5)C4)nc4c(OCC)c(-c5c(C)ccc6[nH]ncc56)c(C5CC5)cc34)CC2)C1 [Compound 331] | < 300 | > 90
C=CC(=O)N1CC2(CCN(c3nc(N4CCC5(CCN(C)C5)CC4)nc4c(OCC(F)(F)F)c(-c5c(C)ccc6[nH]ncc56)c(C5CC5)cc34)CC2)C1 [Compound 163] | < 300 | > 90
C=CC(=O)N1CC2(CCN(c3nc(N4CC[C@H](N5CCC(F)(F)C5)C4)nc4c(OCC(F)(F)F)c(-c5c(C)ccc6[nH]ncc56)c(C5CC5)cc34)CC2)C1 [Compound 199] | 300 to 1000 | > 90
C=CC(=O)N1CC2(CCN(c3nc(N4CC5(CCN(CC6CC6)CC5)C4)nc4c(OCC(F)(F)F)c(-c5c(C)ccc6[nH]ncc56)c(C5CC5)cc34)CC2)C1 [Compound 83] | < 300 | > 90
C=CC(=O)N1CC2(CCN(c3nc(N4CC[C@H](N5CCCC5)C4)nc4c(OCC(F)(F)F)c(-c5c(C)ccc6[nH]ncc56)c(C5CC5)cc34)CC2)C1 [Compound 183] | < 300 | > 90
C=C(C)C(=O)N1CC2(CCN(c3nc(OC4CCN(CCOC)CC4)nc4c(OCC(F)(F)F)c(-c5c(C)ccc6[nH]ncc56)c(C5CC5)cc34)CC2)C1 [Compound 17] | < 300 | > 90

More lines, main results first:

IC50 (H358 cells) [nM] | SMILES | inhibition at 1 µM (pERK level in H358 cells) [%]
300 to 1000 | C=CC(=O)N1CC2(CCN(c3nc(N4CC5(CCN(C6CC6)CC5)C4)nc4c(OCC(F)(F)F)c(-c5c(C)ccc6[nH]ncc56)c(C5CC5)cc34)CC2)C1 [Compound 79] | 50 to 90
< 300 | C=CC(=O)N1CC2(CCN(c3nc(N(C)CCN4CC(F)C4)nc4c(OCC(F)(F)F)c(-c5c(C)ccc6[nH]ncc56)c(C5CC5)cc34)CC2)C1 [Compound 228] | > 90
300 to 1000 | C=CC(=O)N1CC2(CCN(c3nc(N4CC(N5CC(C#N)C5)C4)nc4c(OCC(F)(F)F)c(-c5c(C)ccc6[nH]ncc56)c(C5CC5)cc34)CC2)C1 [Compound 238] | > 90
< 300 | C=CC(=O)N1CC2(CCN(c3nc(N4CC(N5CC[C@H](C)C5)C4)nc4c(OCC)c(-c5c(C)ccc6[nH]ncc56)c(C5CC5)cc34)CC2)C1 [Compound 330] | > 90
< 300 | C=CC(=O)N1CC2(CCN(c3nc(O[C@@H]4CCS(=O)(=O)C[C@H]4N(C)C)nc4c(OCC(F)(F)F)c(-c5c(C)ccc6[nH]ncc56)c(C5CC5)cc34)CC2)C1 [Compound 318] | > 90
< 300 | C=CC(=O)N1CC2(CCN(c3nc(OC4C5CCC4CS(=O)(=O)C5)nc4c(OCC(F)(F)F)c(-c5c(C)ccc6[nH]ncc56)c(C5CC5)cc34)CC2)C1 (stereo not drawn) [Compound 313] | > 90
< 300 | C=CC(=O)N1CC2(CCN(c3nc(N(C)CCN4CC[C@H](O)C4)nc4c(OCC(F)(F)F)c(-c5c(C)ccc6[nH]ncc56)c(C5CC5)cc34)CC2)C1 [Compound 234] | > 90
< 300 | C=CC(=O)N1CC2(CCN(c3nc(N(C)CCN4CC(C)C4)nc4c(OCC(F)(F)F)c(-c5c(C)ccc6[nH]ncc56)c(C5CC5)cc34)CC2)C1 [Compound 227] | > 90
300 to 1000 | C=CC(=O)N1CC2(CCN(c3nc(OC4CCN(CCOC)CC4)nc4c(OCC(F)(F)F)c(-c5c(C)ccc6[nH]ncc56)c(CC)cc34)CC2)C1 [Compound 14] | > 90
< 300 | C=CC(=O)N1CC2(CCN(c3nc(OC4CCN(CCOC)CC4)nc4c(OCC(F)(F)F)c(-c5c(O)cccc5F)c(C5CC5)cc34)CC2)C1 [Compound 45] | > 90
< 300 | C=CC(=O)N1CC2(CCN(c3nc(OC4CC5(C4)CN(C)C5)nc4c(OCC(F)(F)F)c(-c5c(C)ccc6[nH]ncc56)c(C5CC5)cc34)CC2)C1 [Compound 123] | > 90
< 300 | C=CC(=O)N1CC2(CCN(c3nc(OC4CC5(CCN(C)CC5)C4)nc4c(OCC(F)(F)F)c(-c5c(C)ccc6[nH]ncc56)c(C5CC5)cc34)CC2)C1 [Compound 129] | > 90
300 to 1000 | C=C(F)C(=O)N1CC2(CCN(c3nc(N4CC5(CCN(CC(F)(F)F)CC5)C4)nc4c(OCC(F)(F)F)c(-c5c(C)ccc6[nH]ncc56)c(C5CC5)cc34)CC2)C1 [Compound 86] | 50 to 90
< 300 | C=C(F)C(=O)N1CC2(CCN(c3nc(N4CCC5(CN(CCOC)C5)C4)nc4c(OCC(F)(F)F)c(-c5c(C)ccc6[nH]ncc56)c(C5CC5)cc34)CC2)C1 [Compound 100] | > 90
